From patent US6509377B1, “Use of a 2-hydroxy-4-trifluoromethylbenzoic acid derivatives as inhibitors of the activation of the nuclear transcription factor NF-κB” (J. Uriach & Cia, S.A., priority 1999, dated 2003)

Assays:
Format in all cases: cell-based
[1] = test system: COX-2; assay: PGE2 production induced by LPS in human PBMC (ELISA); conditions: LPS 10 μg/ml, 19 hours, 0.1-5 mM
Description: Mononuclear cells (PBMC) were obtained from blood of healthy donors from the Hospital de Sant Pau, (Barcelona) who had not taken any antiinflammatory drug during a period of not less than 2 weeks before blood extraction. Starting from a volume of about 80 ml of heparinized human blood (10 U/ml), this was diluted (1:1) with PBS (pH 7.4; Dulbecco) without calcium, magnesium nor sodium bicarbonate. 15 ml of Ficoll solution (d=1.077 at 20° C.; Biochrom KG) were placed in 50-ml Falcon tubes. To this solution a volume of about 25 ml per tube of the blood previously diluted with PBS was carefully added and the tubes were then centrifuged at 1,200 g for 20 minutes. Mononudear cells concentrate on a whitish interphase between the plasma and the Ficoll solution. This interphase was collected with a Pasteur pipette and was diluted 1:1 with PBS. It was then centrifuged at 300 g, 10 min. The resulting pellet was resuspended in 50 ml PBS and was again centrifuged at 200 g for 10 min in order to remove platelet contamination. Finally, the resulting pellet was resuspended in 20 ml RPMI-1640 culture medium (GibcoBRL) supplemented with 10% fetal calf serum. […]
Finally, the supernatants from each experiment that had been stored at −70° C. were defrozen and the amount of PGE2 in solution was determined using specific ELISA kits (Amershan-Biotrak RPN22).

[2] = test system: NF-κB; assay: Activation of NF-κB induced by immune complexes in rat peritoneal macrophages (EMSA); conditions: 4 mM, 100 μg/ml IgG/ovalbumin, 2 hours
Description: Rat peritoneal cavity cells were extracted and resuspended in DMEM culture medium in the absence of serum previously supplemented with 100 U/ml penicillin, 100 μg/ml streptomycin, 50 μg/ml gentamycin, 2 mM glutamine and 0.5 mM L-arginine. Cells were incubated for 2 hours in culture plates at 37° C. and those which had not adhered to the plates were removed by washing three times with the same fresh medium. More than 95% of the adherent cells were macrophages, as assessed by their ability to engulf zymosan particles and nonspecific esterase staining. Macrophages were kept at 37° C. under a 5% CO2 atmosphere and two hours later non-adherent cells were removed and the peritoneal macrophages adhered to the plates were incubated with 100 μg/ml IgG/ovalbumin immune complexes prepared from; rabbit antiserum for 2 hours in the presence or absence (vehicle) of triflusal or HTB (4 mM, both).
After incubation, macrophages were washed twice with PBS and the degree of activation (binding to DNA) of the transcription factor NF-κB was determined using the EMSA assay, described in detail in Example 1.

[3] = test system: COX-2; assay: COX-2 expression induced by LPS in human PBMC (immunoblot); conditions: LPS 10 μg/ml, 19 hours, 0.1-5 mM
Description: Mononuclear cells (PBMC) were obtained from blood of healthy donors from the Hospital de Sant Pau, (Barcelona) who had not taken any antiinflammatory drug during a period of not less than 2 weeks before blood extraction. Starting from a volume of about 80 ml of heparinized human blood (10 U/ml), this was diluted (1:1) with PBS (pH 7.4; Dulbecco) without calcium, magnesium nor sodium bicarbonate. 15 ml of Ficoll solution (d=1.077 at 20° C.; Biochrom KG) were placed in 50-ml Falcon tubes. To this solution a volume of about 25 ml per tube of the blood previously diluted with PBS was carefully added and the tubes were then centrifuged at 1,200 g for 20 minutes. Mononudear cells concentrate on a whitish interphase between the plasma and the Ficoll solution. This interphase was collected with a Pasteur pipette and was diluted 1:1 with PBS. It was then centrifuged at 300 g, 10 min. The resulting pellet was resuspended in 50 ml PBS and was again centrifuged at 200 g for 10 min in order to remove platelet contamination. Finally, the resulting pellet was resuspended in 20 ml RPMI-1640 culture medium (GibcoBRL) supplemented with 10% fetal calf serum.
Cells were diluted at a concentration of 2.5 million/ml with RPMI medium containing 10% fetal calf serum and were incubated (37° C., 5% CO2) 19 hours in 6-well plates (2 ml/well, 5 million PBMC). […]

Row | Compound | inhibition of PGE2 production [1] | inhibition of the activation of NF-κB induced by immune complexes [2] | inhibition of COX-2 expression [3]
1 | O=C(O)c1ccc(C(F)(F)F)cc1O [HTB, 2-hydroxy-4-trifluoromethylbenzoic acid] | concentration-dependently inhibit | markedly inhibit | concentration-dependently inhibit
2 | CC(=O)Oc1cc(C(F)(F)F)ccc1C(=O)O [triflusal, 2-Acetyloxy-4-trifluoromethylbenzoic acid, reference compound] | concentration-dependently inhibit | markedly inhibit | concentration-dependently inhibit
